Measurements: patent US20230143604A1, “QW DOSING OF GIP RECEPTOR AGONIST PEPTIDE COMPOUNDS AND USES THEREOF” (TAKEDA PHARMACEUTICAL COMPANY LIMITED, priority 2020, published 2023)
Starred links: 1 amine or outer side, 2 acyl side, 3 side chain; linkers in the order of their positions; H or OH if unused. Non-standard residues stand in square brackets, D forms with d. Residues, ends and D or L forms follow the SMILES beside them. Groups on a side chain read outwards from the residue. *: point of attachment. C17 diacid = O=C(O)CCCCCCCCCCCCCCCC(=O)*; γGlu = O=C(O)[C@H](CCC(=O)[*:2])N[*:1]; NMeY = CN[C@@H](Cc1ccc(O)cc1)C(=O)O; AEEA = NCCOCCOCC(=O)O; Aib = CC(C)(N)C(=O)O

Assay: physchem
How it was run: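 Solubility at pH 7.4 determined by stepwise addition of 200 mM phosphate buffer in 100 μL increments to 3 mg peptide, mixing briefly each time, until no insoluble material remained, then measured by liquid chromatography.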

| SMILES | solubility (pH 7.4) | solubility (pH 7.4, aqueous buffer) |
| --- | --- | --- |
| CC[C@H](C)[C@H](NC(=O)[C@H](Cc1ccccc1)NC(=O)[C@@H](NC(=O)CNC(=O)[C@H](CCC(=O)O)NC(=O)C(C)(C)NC(=O)[C@H](Cc1ccc(O)cc1)NC)[C@@H](C)O)C(=O)N[C@@H](CO)C(=O)N[C@@H](CC(=O)O)C(=O)N[C@@H](Cc1ccc(O)cc1)C(=O)N[C@@H](CO)C(=O)N[C@H](C(=O)NC(C)(C)C(=O)N[C@@H](CC(C)C)C(=O)N[C@@H](CC(=O)O)C(=O)N[C@@H](CCCNC(=N)N)C(=O)NC(C)(C)C(=O)N[C@@H](C)C(=O)N[C@@H](CCC(N)=O)C(=O)NC(C)(C)C(=O)N[C@@H](CCCCNC(=O)COCCOCCNC(=O)COCCOCCNC(=O)CC[C@H](NC(=O)CC[C@H](NC(=O)CCCCCCCCCCCCCCCC(=O)O)C(=O)O)C(=O)O)C(=O)N[C@@H](Cc1ccccc1)C(=O)N[C@H](C(=O)N[C@@H](CC(N)=O)C(=O)N[C@@H](Cc1c[nH]c2ccccc12)C(=O)N[C@@H](CC(C)C)C(=O)N[C@@H](CC(C)C)C(=O)N[C@@H](C)C(=O)N[C@@H](CCC(N)=O)C(=O)N[C@@H](CO)C(=O)N1CCC[C@H]1C(=O)NCC(=O)O)C(C)C)[C@@H](C)CC [Compound 126] (H-[NMeY][Aib]EGTFISDYSI[Aib]LDR[Aib]AQ[Aib]K([AEEA-AEEA-γGlu-γGlu-C17 diacid])FVNWLLAQSPG-OH) | ≥ 15 mg/mL | ≥ 30 mg/mL |
| CC[C@H](C)[C@H](NC(=O)[C@H](Cc1ccccc1)NC(=O)[C@@H](NC(=O)CNC(=O)[C@H](CCC(=O)O)NC(=O)C(C)(C)NC(=O)[C@H](Cc1ccc(O)cc1)NC)[C@@H](C)O)C(=O)N[C@@H](CO)C(=O)N[C@@H](CC(=O)O)C(=O)N[C@@H](Cc1ccc(O)cc1)C(=O)N[C@@H](CO)C(=O)N[C@H](C(=O)NC(C)(C)C(=O)N[C@@H](CC(C)C)C(=O)N[C@@H](CC(=O)O)C(=O)N[C@@H](CCCNC(=N)N)C(=O)NC(C)(C)C(=O)N[C@@H](C)C(=O)N[C@@H](CCC(N)=O)C(=O)NC(C)(C)C(=O)N[C@@H](CCCCNC(=O)COCCOCCNC(=O)COCCOCCNC(=O)CC[C@H](NC(=O)CC[C@H](NC(=O)CCCCCCCCCCCCCCCC(=O)O)C(=O)O)C(=O)O)C(=O)N[C@@H](Cc1ccccc1)C(=O)N[C@H](C(=O)N[C@@H](CC(N)=O)C(=O)N[C@@H](Cc1c[nH]c2ccccc12)C(=O)N[C@@H](CC(C)C)C(=O)N[C@@H](CC(C)C)C(=O)N[C@@H](C)C(=O)N[C@@H](CCC(N)=O)C(=O)N[C@@H](CCCNC(=N)N)C(=O)NCC(=O)O)C(C)C)[C@@H](C)CC [Compound 127] (H-[NMeY][Aib]EGTFISDYSI[Aib]LDR[Aib]AQ[Aib]K([AEEA-AEEA-γGlu-γGlu-C17 diacid])FVNWLLAQRG-OH) | ≥ 15 mg/mL | ≥ 30 mg/mL |
| CC[C@H](C)[C@H](NC(=O)[C@H](CCCCN)NC(=O)[C@H](CC(=O)O)NC(=O)[C@H](CC(C)C)NC(=O)C(C)(C)NC(=O)[C@@H](NC(=O)[C@H](CO)NC(=O)[C@H](Cc1ccc(O)cc1)NC(=O)[C@H](CC(=O)O)NC(=O)[C@H](CO)NC(=O)[C@@H](NC(=O)[C@H](Cc1ccccc1)NC(=O)[C@@H](NC(=O)CNC(=O)[C@H](CCC(=O)O)NC(=O)C(C)(C)NC(=O)[C@@H](N)Cc1ccc(O)cc1)[C@@H](C)O)[C@@H](C)CC)[C@@H](C)CC)C(=O)N[C@@H](C)C(=O)N[C@@H](CCC(N)=O)C(=O)N[C@@H](CCC(N)=O)C(=O)N[C@@H](CCCCNC(=O)COCCOCCNC(=O)COCCOCCNC(=O)CC[C@H](NC(=O)CC[C@H](NC(=O)CCCCCCCCCCCCCCCC(=O)O)C(=O)O)C(=O)O)C(=O)N[C@@H](Cc1ccccc1)C(=O)N[C@H](C(=O)N[C@@H](CCC(=O)O)C(=O)N[C@@H](Cc1c[nH]c2ccccc12)C(=O)N[C@@H](CC(C)C)C(=O)N[C@@H](CC(C)C)C(=O)N[C@@H](C)C(=O)N[C@@H](CCC(N)=O)C(=O)N[C@@H](CCCNC(=N)N)C(=O)NCC(=O)O)C(C)C [Compound 129] (H-Y[Aib]EGTFISDYSI[Aib]LDKIAQQK([AEEA-AEEA-γGlu-γGlu-C17 diacid])FVEWLLAQRG-OH) | ≥ 15 mg/mL | ≥ 30 mg/mL |
| CC[C@H](C)[C@H](NC(=O)[C@H](CO)NC(=O)[C@H](Cc1ccc(O)cc1)NC(=O)[C@H](CC(=O)O)NC(=O)[C@H](CO)NC(=O)[C@@H](NC(=O)[C@H](Cc1ccccc1)NC(=O)[C@@H](NC(=O)CNC(=O)[C@H](CCC(=O)O)NC(=O)C(C)(C)NC(=O)[C@@H](N)Cc1ccc(O)cc1)[C@@H](C)O)[C@@H](C)CC)C(=O)N[C@@H](C)C(=O)N[C@@H](CC(C)C)C(=O)N[C@@H](CC(=O)O)C(=O)N[C@@H](CCCCN)C(=O)NC(C)(C)C(=O)N[C@@H](C)C(=O)N[C@@H](CCC(N)=O)C(=O)N[C@@H](CCC(N)=O)C(=O)N[C@@H](CCCCNC(=O)COCCOCCNC(=O)COCCOCCNC(=O)CC[C@H](NC(=O)CC[C@H](NC(=O)CCCCCCCCCCCCCCCC(=O)O)C(=O)O)C(=O)O)C(=O)N[C@@H](Cc1ccccc1)C(=O)N[C@H](C(=O)N[C@@H](CCC(=O)O)C(=O)N[C@@H](Cc1c[nH]c2ccccc12)C(=O)N[C@@H](CC(C)C)C(=O)N[C@@H](CC(C)C)C(=O)N[C@@H](C)C(=O)N[C@@H](CCC(N)=O)C(=O)N[C@@H](CCCNC(=N)N)C(=O)NCC(=O)O)C(C)C [Compound 130] (H-Y[Aib]EGTFISDYSIALDK[Aib]AQQK([AEEA-AEEA-γGlu-γGlu-C17 diacid])FVEWLLAQRG-OH) | ≥ 15 mg/mL | ≥ 30 mg/mL |
| CC[C@H](C)[C@H](NC(=O)[C@H](CO)NC(=O)[C@H](Cc1ccc(O)cc1)NC(=O)[C@H](CC(=O)O)NC(=O)[C@H](CO)NC(=O)[C@@H](NC(=O)[C@H](Cc1ccccc1)NC(=O)[C@@H](NC(=O)CNC(=O)[C@H](CCC(=O)O)NC(=O)C(C)(C)NC(=O)[C@@H](N)Cc1ccc(O)cc1)[C@@H](C)O)[C@@H](C)CC)C(=O)N[C@@H](C)C(=O)N[C@@H](CC(C)C)C(=O)N[C@@H](CC(=O)O)C(=O)N[C@@H](CCCCN)C(=O)NC(C)(C)C(=O)N[C@@H](C)C(=O)N[C@@H](CCC(N)=O)C(=O)N[C@@H](C)C(=O)N[C@@H](CCCCNC(=O)COCCOCCNC(=O)COCCOCCNC(=O)CC[C@H](NC(=O)CC[C@H](NC(=O)CCCCCCCCCCCCCCCC(=O)O)C(=O)O)C(=O)O)C(=O)N[C@@H](Cc1ccccc1)C(=O)N[C@H](C(=O)N[C@@H](CCC(=O)O)C(=O)N[C@@H](Cc1c[nH]c2ccccc12)C(=O)N[C@@H](CC(C)C)C(=O)N[C@@H](CC(C)C)C(=O)N[C@@H](C)C(=O)N[C@@H](CCC(N)=O)C(=O)N[C@@H](CCCNC(=N)N)C(=O)NCC(=O)O)C(C)C [Compound 131] (H-Y[Aib]EGTFISDYSIALDK[Aib]AQAK([AEEA-AEEA-γGlu-γGlu-C17 diacid])FVEWLLAQRG-OH) | ≥ 15 mg/mL | ≥ 30 mg/mL |
| CC[C@H](C)[C@H](NC(=O)[C@H](CCCCN)NC(=O)[C@H](CC(=O)O)NC(=O)[C@H](CC(C)C)NC(=O)[C@H](C)NC(=O)[C@@H](NC(=O)[C@H](CO)NC(=O)[C@H](Cc1ccc(O)cc1)NC(=O)[C@H](CC(=O)O)NC(=O)[C@H](CO)NC(=O)[C@@H](NC(=O)[C@H](Cc1ccccc1)NC(=O)[C@@H](NC(=O)CNC(=O)[C@H](CCC(=O)O)NC(=O)C(C)(C)NC(=O)[C@@H](N)Cc1ccc(O)cc1)[C@@H](C)O)[C@@H](C)CC)[C@@H](C)CC)C(=O)N[C@@H](C)C(=O)N[C@@H](CCC(N)=O)C(=O)NC(C)(C)C(=O)N[C@@H](CCCCNC(=O)COCCOCCNC(=O)COCCOCCNC(=O)CC[C@H](NC(=O)CC[C@H](NC(=O)CCCCCCCCCCCCCCCC(=O)O)C(=O)O)C(=O)O)C(=O)N[C@@H](Cc1ccccc1)C(=O)N[C@H](C(=O)N[C@@H](CCC(=O)O)C(=O)N[C@@H](Cc1c[nH]c2ccccc12)C(=O)N[C@@H](CC(C)C)C(=O)N[C@@H](CC(C)C)C(=O)N[C@@H](C)C(=O)N[C@@H](CCC(N)=O)C(=O)N[C@@H](CCCNC(=N)N)C(=O)NCC(=O)O)C(C)C [Compound 132] (H-Y[Aib]EGTFISDYSIALDKIAQ[Aib]K([AEEA-AEEA-γGlu-γGlu-C17 diacid])FVEWLLAQRG-OH) | ≥ 15 mg/mL | ≥ 30 mg/mL |
| CC[C@H](C)[C@H](NC(=O)[C@H](CO)NC(=O)[C@H](Cc1ccc(O)cc1)NC(=O)[C@H](CC(=O)O)NC(=O)[C@H](CO)NC(=O)[C@@H](NC(=O)[C@H](Cc1ccccc1)NC(=O)[C@@H](NC(=O)CNC(=O)[C@H](CCC(=O)O)NC(=O)C(C)(C)NC(=O)[C@@H](N)Cc1ccc(O)cc1)[C@@H](C)O)[C@@H](C)CC)C(=O)N[C@@H](C)C(=O)N[C@@H](CC(C)C)C(=O)N[C@@H](CC(=O)O)C(=O)N[C@@H](CCCCN)C(=O)N[C@@H](C)C(=O)N[C@@H](C)C(=O)N[C@@H](CCC(N)=O)C(=O)NC(C)(C)C(=O)N[C@@H](CCCCNC(=O)COCCOCCNC(=O)COCCOCCNC(=O)CC[C@H](NC(=O)CC[C@H](NC(=O)CCCCCCCCCCCCCCCC(=O)O)C(=O)O)C(=O)O)C(=O)N[C@@H](Cc1ccccc1)C(=O)N[C@H](C(=O)N[C@@H](CCC(=O)O)C(=O)N[C@@H](Cc1c[nH]c2ccccc12)C(=O)N[C@@H](CC(C)C)C(=O)N[C@@H](CC(C)C)C(=O)N[C@@H](C)C(=O)N[C@@H](CCC(N)=O)C(=O)N[C@@H](CCCNC(=N)N)C(=O)NCC(=O)O)C(C)C [Compound 133] (H-Y[Aib]EGTFISDYSIALDKAAQ[Aib]K([AEEA-AEEA-γGlu-γGlu-C17 diacid])FVEWLLAQRG-OH) | ≥ 15 mg/mL | ≥ 30 mg/mL |
